Experimental data as given in patent US11464756B1, “Mecuna pruriens, L-DOPA and 5-HTP based dietary supplements, pharmaceutical formulations and uses thereof” (priority 2017, dated 2022).

Key:
[1] = cited from earlier work
serotonin levels = assay: Short term rise of serotonin levels after taking 5-HTP; type: in vivo; settings: short term result of taking 5-HTP
Protocol: Recently 5-HTP has been introduced to the US market. […] Taking 5-HTP in any of several forms can raise serotonin levels in a natural way by “Filling the Well”. There appears to be both a short term and long term results from taking 5-HTP. Short term there seems to be a ‘burst’ lasting 4-5 hours when levels rise, and long term as the “reservoir” or “water table” rises, to extend the metaphor, we notice that it takes much less 5-HTP to achieve the same result.

Compound: N[C@@H](Cc1c[nH]c2ccc(O)cc12)C(=O)O [Example 5-HTP, 5-Hydroxy-tryptophan]
- time in which it is decarboxylated in the bloodstream [1]: ≤ 45 min
- duration of short term 'burst' when levels rise (serotonin levels): 4 to 5 h
